According to US20200297671A1, “METHODS OF AVOIDING EXCIPIENT-BASED ADVERSE EFFECTS AND OF EXPLOITING BIOLOGICAL PROPERTIES OF GRAS COMPOUNDS” (MASSACHUSETTS INSTITUTE OF TECHNOLOGY, priority 2019, published 2020):

Experiments:
P-gp = P-gp in vivo experiment (warfarin plasma concentration); design: species or system BALB/c mice; details: mice
Description: A suspension of vitamin A palmitate in 10% DMSO PBS or 10% DMSO PBS buffer control were administered orally to five female BALB/c mice at a dose of 500 mg/kg 15 minutes prior to treatment. Mice were then treated orally with warfarin 20 mg/kg. Blood was sampled after 30 minutes of oral warfarin administration. Warfarin plasma concentrations were determined using LCMS.

mice = details: cited from earlier work
UGT = UGT tissue assay (liver lysate); type: biochemical, porcine; details: pig liver lysate, 500 μM
Description: Compound mixtures were prepared at 500 μM. Freshly extracted porcine liver was homogenized using a tissue homogenizer. The sample was separated using centrifugation and the supernatant was used as a test sample. Two independent experiments with two different liver extracts were performed as described for the microsomes.

Human UGT2B7 = target: T1, Human UGT2B7 (Homo sapiens, UniProt P16662); assay: UGT2B7 inhibition assay (Corning Supersomes, Biovision UGT activity kit); type: biochemical
T1 construct: purchased Corning
T1 sequence (P16662 24-529): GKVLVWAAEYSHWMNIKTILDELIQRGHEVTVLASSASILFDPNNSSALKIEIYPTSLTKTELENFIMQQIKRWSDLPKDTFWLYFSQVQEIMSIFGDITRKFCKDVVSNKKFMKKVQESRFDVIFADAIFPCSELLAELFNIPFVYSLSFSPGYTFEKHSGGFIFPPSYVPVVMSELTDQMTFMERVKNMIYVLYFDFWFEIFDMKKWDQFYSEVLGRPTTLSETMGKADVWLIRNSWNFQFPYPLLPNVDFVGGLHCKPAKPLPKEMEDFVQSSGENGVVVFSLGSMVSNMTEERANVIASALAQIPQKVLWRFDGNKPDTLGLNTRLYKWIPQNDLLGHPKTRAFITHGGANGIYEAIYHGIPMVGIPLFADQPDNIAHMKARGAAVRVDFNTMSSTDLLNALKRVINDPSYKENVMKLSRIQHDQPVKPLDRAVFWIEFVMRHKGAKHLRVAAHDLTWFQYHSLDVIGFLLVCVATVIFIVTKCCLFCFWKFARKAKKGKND
Description: UGT2B7 inhibition was measured using Corning® Supersomes™ Human UGT2B7. The inhibition of UGT2B7 was measured using the commercially-available Biovision UGT activity screening kit as previously described. Briefly, 0.1 mg/mL microsomes were mixed with Alamethicin for pore-formation and a proprietary UGT ligand that loses fluorescence after glucuronidation (Biovision). Plates were incubated for 5 minutes at RT and protected from light before the enzymatic reaction was initiated through the addition of UDPGA. […] Diclofenac (1 mM in PBS 1% DMSO) served as a positive inhibitor control.

patients = details: cited from earlier work

## CCCCCCCCCCCCCCCC(=O)OC/C=C(C)/C=C/C=C(C)/C=C/C1=C(C)CCCC1(C)C [vitamin A palmitate]
P-gp
  systemic warfarin after oral delivery (FIG. 23): induces an increase of systemic warfarin
P-gp; 500 mg/kg oral 15 minutes before warfarin 20 mg/kg oral, blood after 30 minutes
  increase of oral absorption of warfarin: 31%

## CC(C)C1=CC2=CC[C@@H]3[C@](C)(CCC[C@@]3(C)C(=O)O)[C@H]2CC1 [abietic acid]
mice
  toxicity in mice: harmless in mice
UGT
  inhibition of UGT activity ex vivo: successfully inhibited UGT activity
Human UGT2B7
  inhibition of UGT2B7 activity in microsomes (FIG. 18): can inhibit UGT2B7 activity
Human UGT2B7; functional in vitro assay, microsomes, 30 minutes
  IC50: 2.2 ± 0.3 µM

## OC[C@H]1O[C@@H](O[C@H]2[C@H](O)[C@@H](O)C(O)O[C@@H]2CO)[C@H](O)[C@@H](O)[C@H]1O (some centres unmarked) [lactose]
patients; severe cases of lactose intolerance
  amount affecting individuals: less than 200 mg

## O=C([O-])C1=NN(c2ccc(S(=O)(=O)[O-])cc2)C(=O)C1N=Nc1ccc(S(=O)(=O)[O-])cc1.[Na+].[Na+].[Na+] (centres unmarked) [tartrazine]
patients; tartrazine-containing versus tartrazine-free medications, all patients
  patients with adverse symptoms associated with tartrazine content: about 4%
